Source: patent publication US10172864B2, “Therapeutically active compounds and their methods of use” (AGIOS PHARMACEUTICALS, INC, priority 2013, dated 2019)

Molecular target: IDH1 wt/IDH1 R132H heterodimer (Homo sapiens (Human), UniProt O75874, R132H)
Experiment: IDH1 wt/IDH1 R132H heterodimer enzymatic assay, NADPH depletion with diaphorase/resazurin readout
Type: biochemical
Conditions: 300 μM NADP (saturated)
Method: The following describes the experimental procedures that can be used to obtain data on columns 2 and 4 of Table 4 and column 2 of Table 5.
In the primary reaction, the reduction of α-KG acid to 2-HG is accompanied by a concomitant oxidation of NADPH to NADP. The amount of NADPH remaining at the end of the reaction time is measured in a secondary diaphorase/resazurin reaction in which the NADPH is consumed in a 1:1 molar ratio with the conversion of resazurin to the highly fluorescent resorufin.
The mixture of compound, enzyme, and cofactor is pre-incubated at room temperature for 1 hr prior to the addition of alpha-ketoglutarate. To perform the secondary reaction, 10 uL of 1× buffer containing 36 μg/ml diaphorase and […] resazurin is added to the primary reaction and incubated for a further 5 minutes at 25° C. […] Compounds or compound dilutions are prepared in 100% DMSO concentration and diluted 1:50 into the final reaction. […] IC50s are determined.
IDH1 or IDH2 wildtype (wt) and mutant heterodimers are expressed and purified by methods known in the art. […] Host cell contaminants are removed by washing the column with equilibration buffer followed by equilibration buffer containing 20 mM imidazole and 60 mM imidazole to baseline. […]

IDH1 wt/IDH1 R132H heterodimer, sequence (O75874 whole entry R132H): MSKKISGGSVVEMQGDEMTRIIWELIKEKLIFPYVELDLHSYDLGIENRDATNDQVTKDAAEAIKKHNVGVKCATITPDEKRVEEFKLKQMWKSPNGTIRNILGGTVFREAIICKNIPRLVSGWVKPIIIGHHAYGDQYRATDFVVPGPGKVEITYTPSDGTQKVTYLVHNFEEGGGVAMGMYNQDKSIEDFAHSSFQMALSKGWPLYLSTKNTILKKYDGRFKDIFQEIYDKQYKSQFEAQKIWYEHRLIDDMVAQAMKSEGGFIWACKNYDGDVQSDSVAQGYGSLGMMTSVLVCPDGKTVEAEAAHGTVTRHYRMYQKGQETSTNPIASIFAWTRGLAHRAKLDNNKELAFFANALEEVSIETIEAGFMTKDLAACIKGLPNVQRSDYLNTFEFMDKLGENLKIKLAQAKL
IDH1 wt/IDH1 R132H heterodimer, sequence (O75874 whole entry, stated change not applied): as the sequence (O75874 whole entry R132H) above, with H132R counted along it

- IC50: 50 to 100 nM
SMILES: FC1(F)CCC(Nc2nc(NC3CCC(F)(F)CC3)nc(-c3nc(C(F)(F)F)cs3)n2)CC1 [Compound 357]
